# Patent publication US20140056811A1, “NEW CELL-PENETRATING PEPTIDES AND USES THEREOF” (COMPUGEN LTD., priority 2010, published 2014)
# pEC50: −log10 of the molar value. Read-outs that look alike come from different tables or passages of the source. Square brackets hold non-standard residues; d marks the D form. Ends that are not written are not given here. Peptide text beside a SMILES is read from it. * marks the point of attachment. 5FAM = O=C1OC2(c3ccc(O)cc3Oc3cc(O)ccc32)c2ccc(C(=O)*)cc21
# How the values were obtained:
# [1] = tested on: HeLa cells; assay type: cell-based; conditions: for cell viability (MTT), FIG. 7: 26.6 ug/ml and 8.88 ug/ml, 16 hours, normalized by untreated cells; for dose response of cell viability (MTT), FIG. 8: average of duplicates
# Method: In order to examine CPPs capability to deliver into the cell a cargo, the ability of the CPPs to facilitate intracellular cargo delivery of a pro apoptotic peptide—klaklakklaklak (also referred herein as (klaklak)2), was examined. (klaklak)2 is unable to efficiently penetrate cell membranes on its own, and thus using this pro-apoptotic peptide requires efficient intracellular delivery to trigger mitochondrial disruption and mitochondrial-dependent apoptosis. HeLa cells were seeded in DMEM supplemented with 10% fetal Bovine serum (FBS) in 96-well plates, 10,000 cells/well in a total volume of 200 μL 24 hours prior to their treatment with the peptide. Cells were incubated with any one of the CPPs and/or any one of the control peptides ([…]) conjugated to pro-apoptotic peptide (klaklak)2 through a short flexible linker of Gly-Gly (as described in the above peptide synthesis section for SEQ ID NOs: 24-32) for 16 hours under tissue culture conditions. Cell viability was then assessed using MTT[3-(4,5-dimethylthiazol-2-yl)-2,5-diphenyl-2H-tetrazo-liumbromide] assay (Catalog number M5655, Sigma, Israel). MTT reagent was added to cells for 4 hours, following cell lysis using DMSO and absorbance was measured at 492 nm. As positive controls (klaklak)2 conjugated to TAT or R9 were used, corresponding to SEQ ID NOs:26 and 25, respectively. As negative controls (klaklak)2 on its own (SEQ ID NO:31), (klaklak)2 conjugated to N5 ([…]) and peptides not conjugated to (klaklak)2 were used.
# [2] = In vitro cytotoxicity by LDH (lactate dehydrogenase) analysis; assay type: cell-based; conditions: human; 5-FAM labeled peptides, 10 uM (also stated 10 ug/ml), 1 h, 37° C., HeLa cells; read-out: LDH % cytotoxicity
# Method: In order to assess the in vitro cytotoxicity of the peptides, an LDH (lactate dehydrogenase) analysis was carried out, using LDH kit (Promega G1782), according to manufacturer instructions.
# Briefly, HeLa cells from 5 ml of confluent T75 flask were seed in 96 well plate at 10×10^4 cells/mL in 0.1 ml DMEM supplied with 10% Fetal Calf Serum. After 24 hrs incubation with growth medium, wells were replaced with Serum Free growth medium for 24 hrs, and then cells were washed with OptiMEM and replaced with 0.1 ml peptide solution at 10 uM for 1 h at 37° C. 50 ul of supernatant were transferred to the new plate and detected according to Cyto Tox 96, Non Radioactive cytotoxicity assay, (LDH kit Promega G1782). Table 5 presents the results of in vitro cytotoxicity measurements by LDH for S22, S24, S36 and S40 peptides and two positive control peptides; Tat(47-57) and R9. LDH experiment was done with fluorescent labeled (5-FAM) peptides in concentration of […] and the % of cytotoxicity was measured by LDH levels.
Compound,"cell viability (MTT), FIG. 7 ([1]; HeLa cells)","cytotoxicity at 1 h, 10 µM [2] [%]",other results
"klaklakklaklak (KLAKLAKKLAKLAK; D-amino acids) [(klaklak)2, pro apoptotic peptide used as cargo, reference compound]",almost no reduction in cell viability,–,–
"FLRRRRRFTRQTGG-klaklakklaklak (Ac-FLRRRRRFTRQTGG[dK][dL][dA][dK][dL][dA][dK][dK][dL][dA][dK][dL][dA][dK]-NH2) [S40-klaklak, S40 conjugated to (klaklak)2 with GG linker]",reduction in cell viability,–,–
"KPSARMLLLKGFGKGG-klaklakklaklak (Ac-KPSARMLLLKGFGKGG[dK][dL][dA][dK][dL][dA][dK][dK][dL][dA][dK][dL][dA][dK]-NH2) [S8-klaklak, S8 conjugated to (klaklak)2 with GG linker]",reduction in cell viability,–,–
"YGRKKRRQRRRGG-klaklakklaklak (YGRKKRRQRRRGGKLAKLAKKLAKLAK) [TAT-klaklak, positive control TAT conjugated to (klaklak)2 with GG linker, reference compound]",–,–,"dose response of cell viability (MTT), FIG. 8 ([1]; 16 hr, HeLa cells): effective dose response curve"
"CC(=O)N[C@@H](CCCNC(=N)N)C(=O)N[C@@H](CCCNC(=N)N)C(=O)N[C@@H](CCCNC(=N)N)C(=O)N[C@@H](Cc1c[nH]cn1)C(=O)N[C@@H](CCC(N)=O)C(=O)N[C@@H](CCCNC(=N)N)C(=O)N[C@@H](CCCCN)C(=O)N[C@@H](Cc1ccc(O)cc1)C(=O)N[C@@H](CCCNC(=N)N)C(=O)N[C@@H](CCCNC(=N)N)C(=O)N[C@@H](Cc1ccc(O)cc1)C(=O)NCC(=O)NCC(=O)N[C@H](CCCCN)C(=O)N[C@H](CC(C)C)C(=O)N[C@H](C)C(=O)N[C@H](CCCCN)C(=O)N[C@H](CC(C)C)C(=O)N[C@H](C)C(=O)N[C@H](CCCCN)C(=O)N[C@H](CCCCN)C(=O)N[C@H](CC(C)C)C(=O)N[C@H](C)C(=O)N[C@H](CCCCN)C(=O)N[C@H](CC(C)C)C(=O)N[C@H](C)C(=O)N[C@H](CCCCN)C(N)=O [S36-klaklak, RRRHQRKYRRYGG-klaklakklaklak] (Ac-RRRHQRKYRRYGG[dK][dL][dA][dK][dL][dA][dK][dK][dL][dA][dK][dL][dA][dK]-NH2)",reduction in cell viability,–,pEC50 ([1]; 16 h): 4.95
"CC(C)C[C@H](NC(=O)[C@H](Cc1ccccc1)NC(=O)c1ccc2c(c1)C(=O)OC21c2ccc(O)cc2Oc2cc(O)ccc21)C(=O)N[C@@H](CCCNC(=N)N)C(=O)N[C@@H](CCCNC(=N)N)C(=O)N[C@@H](CCCNC(=N)N)C(=O)N[C@@H](CCCNC(=N)N)C(=O)N[C@@H](CCCNC(=N)N)C(=O)N[C@@H](Cc1ccccc1)C(=O)N[C@H](C(=O)N[C@@H](CCCNC(=N)N)C(=O)N[C@@H](CCC(N)=O)C(=O)N[C@H](C(N)=O)[C@@H](C)O)[C@@H](C)O [S40, FLRRRRRFTRQT] (5FAM-FLRRRRRFTRQT-NH2)",–,8,–
"CC(=O)N[C@@H](CCCCN)C(=O)N[C@@H](CCCCN)C(=O)N[C@H](C(=O)N[C@@H](CC(C)C)C(=O)N[C@@H](CCCCN)C(=O)N[C@@H](CCCCN)C(=O)N[C@@H](CC(C)C)C(=O)N[C@@H](Cc1c[nH]c2ccccc12)C(=O)N[C@@H](CCCCN)C(=O)N[C@@H](CCCCN)C(=O)N[C@@H](CCCCN)C(=O)N[C@@H](CCCCN)C(=O)N[C@@H](CCCNC(=N)N)C(=O)N[C@@H](CCCCN)C(=O)NCC(=O)NCC(=O)N[C@H](CCCCN)C(=O)N[C@H](CC(C)C)C(=O)N[C@H](C)C(=O)N[C@H](CCCCN)C(=O)N[C@H](CC(C)C)C(=O)N[C@H](C)C(=O)N[C@H](CCCCN)C(=O)N[C@H](CCCCN)C(=O)N[C@H](CC(C)C)C(=O)N[C@H](C)C(=O)N[C@H](CCCCN)C(=O)N[C@H](CC(C)C)C(=O)N[C@H](C)C(=O)N[C@H](CCCCN)C(N)=O)[C@@H](C)O [S24-klaklak, KKTLKKLWKKKKRKGG-klaklakklaklak] (Ac-KKTLKKLWKKKKRKGG[dK][dL][dA][dK][dL][dA][dK][dK][dL][dA][dK][dL][dA][dK]-NH2)",reduction in cell viability,–,"EC50 ([1]; 16 hr, HeLa cells, unit only from the X axis (log uM concentration), read-out: EC50 of cell viability (MTT), FIG. 9): 8.45 µM"
"N=C(N)NCCC[C@H](NC(=O)c1ccc2c(c1)C(=O)OC21c2ccc(O)cc2Oc2cc(O)ccc21)C(=O)N[C@@H](CCCNC(=N)N)C(=O)N[C@@H](CCCNC(=N)N)C(=O)N[C@@H](Cc1c[nH]cn1)C(=O)N[C@@H](CCC(N)=O)C(=O)N[C@@H](CCCNC(=N)N)C(=O)N[C@@H](CCCCN)C(=O)N[C@@H](Cc1ccc(O)cc1)C(=O)N[C@@H](CCCNC(=N)N)C(=O)N[C@@H](CCCNC(=N)N)C(=O)N[C@@H](Cc1ccc(O)cc1)C(N)=O [S36, RRRHQRKYRRY] (5FAM-RRRHQRKYRRY-NH2)",–,3,–
"VATIKSVSFYTRKGG-klaklakklaklak (Ac-VATIKSVSFYTRKGG[dK][dL][dA][dK][dL][dA][dK][dK][dL][dA][dK][dL][dA][dK]-NH2) [N2-klaklak, negative control peptide N2 conjugated to (klaklak)2 with GG linker, reference compound]",–,–,"dose response of cell viability (MTT), FIG. 8 ([1]; 16 hr, HeLa cells): no dose response curve—no effect"
"RRRRRRRRRGG-klaklakklaklak (RRRRRRRRRGG[dK][dL][dA][dK][dL][dA][dK][dK][dL][dA][dK][dL][dA][dK]) [R9-klaklak, positive control R9 conjugated to (klaklak)2 with GG linker, reference compound]",–,–,"dose response of cell viability (MTT), FIG. 8 ([1]; 16 hr, HeLa cells): effective dose response curve"
"N=C(N)NCCC[C@H](NC(=O)[C@H](CCCNC(=N)N)NC(=O)[C@H](CCCNC(=N)N)NC(=O)[C@H](CCCNC(=N)N)NC(=O)[C@H](CCCNC(=N)N)NC(=O)[C@H](CCCNC(=N)N)NC(=O)[C@H](CCCNC(=N)N)NC(=O)[C@H](CCCNC(=N)N)NC(=O)[C@H](CCCNC(=N)N)NC(=O)c1ccc2c(c1)C(=O)OC21c2ccc(O)cc2Oc2cc(O)ccc21)C(N)=O [9R, RRRRRRRRR, reference compound]",–,2,–
"CC(C)C[C@H](NC(=O)[C@H](CCCCN)NC(=O)[C@H](CCCCN)NC(=O)[C@H](CC(C)C)NC(=O)[C@@H](NC(=O)[C@H](CCCCN)NC(=O)[C@H](CCCCN)NC(=O)c1ccc2c(c1)C(=O)OC21c2ccc(O)cc2Oc2cc(O)ccc21)[C@@H](C)O)C(=O)N[C@@H](Cc1c[nH]c2ccccc12)C(=O)N[C@@H](CCCCN)C(=O)N[C@@H](CCCCN)C(=O)N[C@@H](CCCCN)C(=O)N[C@@H](CCCCN)C(=O)N[C@@H](CCCNC(=N)N)C(=O)N[C@@H](CCCCN)C(N)=O [S24, KKTLKKLWKKKKRK] (5FAM-KKTLKKLWKKKKRK-NH2)",–,10,–
